Data on 2 molecules can be found in ChEMBL document CHEMBL3351580, “Pyrano-isochromanones as IL-6 inhibitors: synthesis, in vitro and in vivo antiarthritic activity” (J Med Chem, 2014).

Series [1] has as its system THP-1. In words: Inhibition of LPS-induced TNFalpha production in human THP1 cells after 24 hrs. In kind it is functional, cell-based. The following applies: THP-1, 24 h.
The test system of series [2] is Mus musculus. In words: Antiarthritic activity in DBA/1J mouse collagen-induced arthritis model assessed as reduction in anticollagen antibody IgG2a level at 5 mg/kg, po administered once daily for 49 days starting from onset of disease and measured after 49 days of disease onset by ELISA method. It counts as functional, organism-based. The arrangement: dose 5 mg/kg. In general terms: ELISA stands for enzyme-linked immunosorbent assay.

In series [3] the test system is Mus musculus. In words: Antiarthritic activity in DBA/1J mouse collagen-induced arthritis model assessed as reduction in anticollagen antibody IgG1 level at 5 mg/kg, po administered once daily for 49 days starting from onset of disease and measured after 49 days of disease onset by ELISA method. It counts as functional, organism-based. More on the design: dose 5 mg/kg.

Series [4] deals with Mus musculus. In words: Antiarthritic activity in DBA/1J mouse collagen-induced arthritis model assessed as reduction in IL-1beta level at 5 mg/kg, po administered once daily for 49 days starting from onset of disease and measured after 3 to 49 days of disease onset by ELISA method. In kind it is functional, organism-based. The arrangement: dose 5 mg/kg.
Series [5] has as its system Mus musculus. In words: Antiarthritic activity in DBA/1J mouse collagen-induced arthritis model assessed as reduction in anticollagen antibody IgG2a level at 5 mg/kg, po administered once daily for 49 days starting from onset of disease and measured after 14 days of disease onset by ELISA method. More on the design: dose 5 mg/kg. It counts as functional, organism-based.

In series [6] the test system is Mus musculus. In words: Antiarthritic activity in DBA/1J mouse collagen-induced arthritis model assessed as reduction in anticollagen antibody IgG1 level at 5 mg/kg, po administered once daily for 49 days starting from onset of disease and measured after 14 days of disease onset by ELISA method. In kind it is functional, organism-based. The arrangement: dose 5 mg/kg.

Series [7] deals with Mus musculus. Description: Antiarthritic activity in DBA/1J mouse collagen-induced arthritis model assessed as reduction in IL6 level at 5 mg/kg, po administered once daily for 49 days starting from onset of disease and measured after 3 to 49 days of disease onset by ELISA method. In kind it is functional, organism-based. The arrangement: dose 5 mg/kg.
Series [8] has as its system Mus musculus. Description: Antiarthritic activity in DBA/1J mouse collagen-induced arthritis model assessed as reduction in TNFalpha level at 5 mg/kg, po administered once daily for 49 days starting from onset of disease and measured after 3 to 49 days of disease onset by ELISA method. In kind it is functional, organism-based. The arrangement: dose 5 mg/kg.
For series [9], the system named is B-cell. Description: Inhibition of LPS-induced cell proliferation of B cells (unknown origin) at 10 uM after 72 hrs by MTT assay. It counts as functional.
Series [10] in a line: Inhibition of concanavalin A-induced cell proliferation of T cells (unknown origin) at 10 uM after 72 hrs by MTT assay. In kind it is functional. For orientation: Tetrazolium assays rely on reduction of a dye to a coloured formazan, in cell work by metabolically active cells.
Series [11] relates to Mus musculus. In words: Antiarthritic activity in DBA/1J mouse collagen-induced arthritis model assessed as reduction in paw swelling at 5 mg/kg, po administered once daily for 49 days starting from onset of disease. It counts as functional. The conditions noted are these: 1176 h.
Series [12] concerns THP-1. Description: Inhibition of LPS-induced IL6 production in human THP1 cells after 24 hrs. It counts as functional, cell-based. The conditions noted are these: THP-1, 24 h.
The nature of series [13]: Solubility in water. In kind it is physicochemical.
In series [14] the test system is Mus musculus. Description: Antiarthritic activity in DBA/1J mouse collagen-induced arthritis model assessed as reduction in anticollagen antibody IgG2a level at 3 to 30 mg/kg, po administered once daily for 49 days starting from onset of disease and measured after 49 days of disease onset by ELISA method. It counts as functional, organism-based.
Series [15] has as its system Mus musculus. Description: Antiarthritic activity in BALB/c mouse assessed as reduction in SRBC-induced blood IFNgamma level administered orally once daily for 14 days measured 4 hrs post last dose by ELISA method. It counts as functional, organism-based.
Series [16] concerns Mus musculus. Description: Antiinflammatory activity in BALB/c mouse assessed as serum IL6 level at 100 mg/kg, po qd for 5 days followed by LPS challenge 1 hr after last compound dose on fifth day and measured 4 hrs post LPS challenge by ELISA method (reference value: 410 +/- 95 pg/mL). It counts as functional.
Series [17] concerns THP-1. Description: Inhibition of NFkappaB p65/rel expression in human THP1 cells at 20 to 100 uM by Western blotting method. In kind it is functional, cell-based.
For series [18], the system named is Mus musculus. Description: Antiinflammatory activity in BALB/c mouse assessed as serum TNFalpha level at 10 mg/kg, po qd for 5 days followed by LPS challenge 1 hr after last compound dose on fifth day and measured 4 hrs post LPS challenge by ELISA method (reference value: 717 +/- 218 pg/mL). In kind it is functional.
The test system of series [19] is Mus musculus. In words: Antiarthritic activity in DBA/1J mouse collagen-induced arthritis model assessed as reduction in paw swelling at 30 mg/kg, po administered once daily for 49 days starting from onset of disease. The conditions noted are these: 1176 h. It counts as functional.
Series [20] relates to Mus musculus. In words: Antiarthritic activity in DBA/1J mouse collagen-induced arthritis model assessed as reduction in TNFalpha level at 3 to 30 mg/kg, po administered once daily for 49 days starting from onset of disease and measured after 3 to 49 days of disease onset by ELISA method. It counts as functional, organism-based.
In series [21] the test system is THP-1. In words: Cytotoxicity against human THP1 cells after 24 hrs by MTT assay. It counts as cell-based. The following applies: THP-1, 24 h.
Series [22] relates to THP-1. Description: Inhibition of LPS-induced IL-1beta production in human THP1 cells at 10 uM after 24 hrs. In kind it is functional. The following applies: THP-1, 24 h.
The test system of series [23] is THP-1. Description: Cytotoxicity against human THP1 cells after 48 hrs by MTT assay. In kind it is cell-based. The conditions noted are these: THP-1, 48 h.
The test system of series [24] is Mus musculus. In words: Antiarthritic activity in DBA/1J mouse collagen-induced arthritis model assessed as reduction in anticollagen antibody IgG2a level at 3 to 30 mg/kg, po administered once daily for 49 days starting from onset of disease and measured after 14 days of disease onset by ELISA method. In kind it is functional, organism-based.
Series [25] relates to THP-1. Description: Inhibition of LPS-induced nitric oxide production in human THP1 cells at 10 uM after 24 hrs by Griess assay. In kind it is functional. The following applies: THP-1, 24 h. (In general: Nitrite, measured by Griess reagent, commonly stands in for NO production.)
Series [26] has as its system Mus musculus. Description: Antiarthritic activity in DBA/1J mouse collagen-induced arthritis model assessed as reduction in anticollagen antibody IgG1 level at 3 to 30 mg/kg, po administered once daily for 49 days starting from onset of disease and measured after 49 days of disease onset by ELISA method. It counts as functional, organism-based.
Series [27] concerns Mus musculus. In words: Antiarthritic activity in DBA/1J mouse collagen-induced arthritis model assessed as reduction in IL6 level at 3 to 30 mg/kg, po administered once daily for 49 days starting from onset of disease and measured after 3 to 49 days of disease onset by ELISA method. In kind it is functional, organism-based.
The subject of series [28] is THP-1. Description: Inhibition of NFkappaB expression in human THP1 cells up to 100 uM by Western blotting method. It counts as functional, cell-based.
Series [29] concerns Mus musculus. Description: Antiinflammatory activity in BALB/c mouse assessed as serum nitric oxide level at 100 mg/kg, po qd for 5 days followed by LPS challenge 1 hr after last compound dose on fifth day and measured 4 hrs post LPS challenge by Griess assay (reference value: 6.95 +/- 1.81 uM). In kind it is functional.
Series [30] relates to Mus musculus. In words: Antiinflammatory activity in BALB/c mouse assessed as serum TNFalpha level at 100 mg/kg, po qd for 5 days followed by LPS challenge 1 hr after last compound dose on fifth day and measured 4 hrs post LPS challenge by ELISA method (reference value: 717 +/- 218 pg/mL). In kind it is functional.
Series [31] in a line: Therapeutic index, ratio of cytotoxic IC50 for human THP1 cells by MTT assay to IC50 for inhibition of LPS-induced IL6 production in human THP1 cells. In kind it is cell-based, THP-1. The following applies: read-out: Ratio IC50.
For series [32], the system named is Mus musculus. In words: Antiarthritic activity in BALB/c mouse assessed as reduction in SRBC-induced blood IL2 level administered orally once daily for 14 days measured 4 hrs post last dose by ELISA method. In kind it is functional, organism-based.
Series [33] deals with Mus musculus. Description: Immunosuppressive activity in BALB/c mouse assessed as reduction in SRBC-induced humoral immunity by measuring IgG level at 3 to 30 mg/kg, po administered once daily for 14 days measured 4 hrs post last dose. In kind it is functional, organism-based.
The test system of series [34] is Mus musculus. Description: Antiinflammatory activity in BALB/c mouse assessed as serum nitric oxide level at 10 mg/kg, po qd for 5 days followed by LPS challenge 1 hr after last compound dose on fifth day and measured 4 hrs post LPS challenge by Griess assay (reference value: 6.95 +/- 1.81 uM). In kind it is functional.
The test system of series [35] is Mus musculus. Description: Antiarthritic activity in DBA/1J mouse collagen-induced arthritis model assessed as reduction in anticollagen antibody IgG1 level at 3 to 30 mg/kg, po administered once daily for 49 days starting from onset of disease and measured after 14 days of disease onset by ELISA method. It counts as functional, organism-based.
Series [36] has as its system Mus musculus. In words: Antiinflammatory activity in BALB/c mouse assessed as serum IL6 level at 10 mg/kg, po qd for 5 days followed by LPS challenge 1 hr after last compound dose on fifth day and measured 4 hrs post LPS challenge by ELISA method (reference value: 410 +/- 95 pg/mL). In kind it is functional.
Series [37] concerns Mus musculus. Description: Antiarthritic activity in BALB/c mouse assessed as reduction in SRBC-induced blood IL4 level administered orally once daily for 14 days measured 4 hrs post last dose by ELISA method. In kind it is functional, organism-based.
Series [38] has as its system Mus musculus. In words: Antiarthritic activity in DBA/1J mouse collagen-induced arthritis model assessed as reduction in IL-1beta level at 3 to 30 mg/kg, po administered once daily for 49 days starting from onset of disease and measured after 3 to 49 days of disease onset by ELISA method. It counts as functional, organism-based.
Series [39] concerns the target Inhibitor of NF-kappa-B kinase (IKK) (Homo sapiens) (UniProt O14920+O15111+Q9Y6K9). In words: Inhibition of IKKbeta expression in human THP1 cells at 20 to 100 uM by Western blotting method. In kind it is functional, cell-based. The following applies: THP-1.
Series [40] has as its system Mus musculus. Description: Immunosuppressive activity in BALB/c mouse assessed as reduction in SRBC-induced humoral immunity by measuring IgM level at 3 to 30 mg/kg, po administered once daily for 14 days measured 4 hrs post last dose. In kind it is functional, organism-based.
The test system of series [41] is Mus musculus. Description: Immunosuppressive activity in BALB/c mouse assessed as reduction in SRBC-induced DTH response at 3 to 30 mg/kg, po administered once daily for 14 days measured 4 hrs post last dose. In kind it is functional, organism-based.

pIC50: −log10 of the molar value. The source made the active and inactive calls. The calls are words filed in the database; no cut-off is given here.

By pIC50 is commonly meant −log10 of the IC50, conventionally taken in molar units. Read a high pIC50 as a small IC50. As usually defined, the inhibition is the percentage by which the read-out fell short of the control. Usually inhibition in vivo stands for the change of the read-out against control, counted positive when it falls. As for `C[C@H]1C[C@H]2[C@@H]3CCC4=CC(=O)C=C[C@]4(C)[C@@]3(F)[C@@H](O)C[C@]2(C)[C@@]1(O)C(=O)CO` [BETAMETHASONE], the pIC50 in [1] was 7.89; in [12] it was 7.66. Further, the inhibition result in series [2], in series [3], in series [4], in series [5], in series [6] and in [7] was “Active” throughout. In addition, the inhibition entry in [8] is “Active”. Also, the figures for the inhibition at 10 µM in series [9] and in [10] were 28.1% and 42.6%, respectively. The inhibition in vivo at 5 mg/kg in series [11] was 46%.

By solubility is commonly meant how much of the substance goes into solution per volume. A high value points to much dissolved substance. `COc1c(O)cc2c(c1O)[C@@H]1O[C@H](CO)[C@@H](O)[C@H](O)[C@H]1OC2=O` [BERGENIN]: the solubility in series [13] was above 1.5 mg/mL. Further, the inhibition entry in series [14], in series [17], in [20], in series [24], in series [26] and in [27] was “Active” each time. The inhibition result in series [33], in [35], in [38], in series [39], in series [40] and in series [41] was “Active” each time. Besides, the inhibition entry in [15], in [32] and in series [37] was “Dose-dependent effect” each time. Moreover, the Activity in series [16] is 55 pg/mL; in series [18] it was 667 pg/mL; in [29] it was 3.29 µM; in series [30], 509 pg/mL; in [34], 2.62 µM; in series [36], 282 pg/mL. Also, the pIC50 in series [1] is 4.90; in series [21] it was 3.89; in [23], 4.08; in [12], 6.68. The inhibition in vivo at 30 mg/kg in series [19] amounted to 32%. Besides, the inhibition at 10 µM in series [22] came out at 24%; in series [25], 39%; in series [9], 51.2%; in series [10], 54.8%. For the same molecule, the inhibition entry in [28] is “inactive”. In addition, the selectivity ratio in series [31] is above 400.
